Data taken from PubChem BioAssay (NCI).
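Five concentrations, 48 hours, 96-well plates. The concentration for 50% growth inhibition is given as GI50. The concentration for full growth arrest is given as TGI.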

Key:
Assay in all cases: inhibition of tumour cell growth, NCI panel, 48 h
[1] = tested on: 786-0 renal
[2] = tested on: A498 renal
[3] = tested on: A549 NSCLC
[4] = tested on: ACHN renal
[5] = tested on: BT-549 breast
[6] = tested on: CAKI-1 renal
[7] = tested on: CCRF-CEM leukemia
[8] = tested on: COLO 205 colon
[9] = tested on: DU-145 prostate
[10] = tested on: EKVX NSCLC
[11] = tested on: HCC-2998 colon
[12] = tested on: HCT-116 colon
[13] = tested on: HCT-15 colon
[14] = tested on: HL-60(TB) leukemia
[15] = tested on: HOP-62 NSCLC
[16] = tested on: HOP-92 NSCLC
[17] = tested on: HS 578T breast
[18] = tested on: HT29 colon
[19] = tested on: IGROV1 ovarian
[20] = tested on: K-562 leukemia
[21] = tested on: KM12 colon
[22] = tested on: LOX IMVI melanoma
[23] = tested on: M14 melanoma
[24] = tested on: MALME-3M melanoma
[25] = tested on: MCF7 breast
[26] = tested on: MDA-MB-231 breast
[27] = tested on: MDA-MB-435
[28] = tested on: MOLT-4 leukemia
[29] = tested on: NCI-H226 lung
[30] = tested on: NCI-H23 lung
[31] = tested on: NCI-H460 lung
[32] = tested on: NCI-H522 lung
[33] = tested on: NCI/ADR-RES ovarian
[34] = tested on: OVCAR-3 ovarian
[35] = tested on: OVCAR-4 ovarian
[36] = tested on: OVCAR-5 ovarian
[37] = tested on: OVCAR-8 ovarian
[38] = tested on: PC-3 prostate
[39] = tested on: RPMI-8226 leukemia
[40] = tested on: RXF 393 renal
[41] = tested on: SF-268 CNS
[42] = tested on: SF-295 CNS
[43] = tested on: SF-539 CNS
[44] = tested on: SK-MEL-2 melanoma
[45] = tested on: SK-MEL-28 melanoma
[46] = tested on: SK-MEL-5 melanoma
[47] = tested on: SK-OV-3 ovarian
[48] = tested on: SN12C renal
[49] = tested on: SNB-19 CNS
[50] = tested on: SNB-75 CNS
[51] = tested on: SR leukemia
[52] = tested on: SW-620 colon
[53] = tested on: T-47D breast
[54] = tested on: TK-10 renal
[55] = tested on: U251 CNS
[56] = tested on: UACC-257 melanoma
[57] = tested on: UACC-62 melanoma
[58] = tested on: UO-31 renal

Structure (SMILES): CCN1C(=O)NC(=O)C(C)(N2C(=O)c3c(F)c(F)c(F)c(F)c3C2=O)C1=O (stereo unspecified)
- GI50 [1]: 4.49 µM
- TGI [1]: 17.7 µM
- GI50 [2]: 17.7 µM
- TGI [2]: 32.9 µM
- GI50 [3]: 3.69 µM
- TGI [3]: 18.3 µM
- GI50 [4]: 2.03 µM
- TGI [4]: 3.94 µM
- GI50 [5]: 3.82 µM
- TGI [5]: 13.3 µM
- GI50 [6]: 1.94 µM
- TGI [6]: 4.86 µM
- GI50 [7]: 1.89 µM
- TGI [7]: 4.54 µM
- GI50 [8]: 2.13 µM
- TGI [8]: 4.47 µM
- GI50 [9]: 3.13 µM
- TGI [9]: 11.6 µM
- GI50 [10]: 5.76 µM
- TGI [10]: 18 µM
- GI50 [11]: 2.52 µM
- TGI [11]: 7.77 µM
- GI50 [12]: 2.36 µM
- TGI [12]: 7.31 µM
- GI50 [13]: 2.86 µM
- TGI [13]: 11.1 µM
- GI50 [14]: 1.61 µM
- TGI [14]: 3.49 µM
- GI50 [15]: 5.97 µM
- TGI [15]: 18.3 µM
- GI50 [16]: 1.86 µM
- TGI [16]: 4.12 µM
- GI50 [17]: 3.95 µM
- TGI [17]: 25.1 µM
- GI50 [18]: 2.4 µM
- TGI [18]: 8.58 µM
- GI50 [19]: 1.9 µM
- TGI [19]: 4.92 µM
- GI50 [20]: 1.66 µM
- TGI [20]: 3.71 µM
- GI50 [21]: 2.11 µM
- TGI [21]: 4.56 µM
- GI50 [22]: 1.87 µM
- TGI [22]: 4 µM
- GI50 [23]: 3.16 µM
- TGI [23]: 10.7 µM
- GI50 [24]: 2.06 µM
- TGI [24]: 5.48 µM
- GI50 [25]: 2.77 µM
- TGI [25]: 13.5 µM
- GI50 [26]: 2.66 µM
- TGI [26]: 9.13 µM
- GI50 [27]: 2.96 µM
- TGI [27]: 10.6 µM
- GI50 [28]: 2.44 µM
- TGI [28]: 10.1 µM
- GI50 [29]: 9.58 µM
- TGI [29]: 36.7 µM
- GI50 [30]: 3.92 µM
- TGI [30]: 17.7 µM
- GI50 [31]: 4.95 µM
- TGI [31]: 10.6 µM
- GI50 [32]: 1.66 µM
- TGI [32]: 3.97 µM
- GI50 [33]: 3.6 µM
- TGI [33]: 18.2 µM
- GI50 [34]: 1.71 µM
- TGI [34]: 3.22 µM
- GI50 [35]: 2.44 µM
- TGI [35]: 6.31 µM
- GI50 [36]: 3.82 µM
- TGI [36]: 14.8 µM
- GI50 [37]: 3.55 µM
- TGI [37]: 22.6 µM
- GI50 [38]: 3.09 µM
- TGI [38]: 10.5 µM
- GI50 [39]: 1.65 µM
- TGI [39]: 6.53 µM
- GI50 [40]: 1.99 µM
- TGI [40]: 4.43 µM
- GI50 [41]: 2.6 µM
- TGI [41]: 7.43 µM
- GI50 [42]: 9.67 µM
- TGI [42]: 23.9 µM
- GI50 [43]: 2.89 µM
- TGI [43]: 8.02 µM
- GI50 [44]: 3.84 µM
- TGI [44]: 21.6 µM
- GI50 [45]: 2.25 µM
- TGI [45]: 5.82 µM
- GI50 [46]: 4.92 µM
- TGI [46]: 13.7 µM
- GI50 [47]: 10.1 µM
- TGI [47]: 24.6 µM
- GI50 [48]: 3.99 µM
- TGI [48]: 14.6 µM
- GI50 [49]: 9.49 µM
- TGI [49]: 24.9 µM
- GI50 [50]: 2.96 µM
- TGI [50]: 11.1 µM
- GI50 [51]: 0.444 µM
- TGI [51]: 2.22 µM
- GI50 [52]: 1.82 µM
- TGI [52]: 3.85 µM
- GI50 [53]: 3.42 µM
- TGI [53]: 11.9 µM
- GI50 [54]: 3.72 µM
- TGI [54]: 18.6 µM
- GI50 [55]: 1.93 µM
- TGI [55]: 4.04 µM
- GI50 [56]: 4.26 µM
- TGI [56]: 14 µM
- GI50 [57]: 2.75 µM
- TGI [57]: 9.57 µM
- GI50 [58]: 2.39 µM
- TGI [58]: 6.98 µM
